This is an account of results in patent US9199999B2, “Substituted imidazopyrazines” (Bayer Intellectual Property GmbH, priority 2010, dated 2015).

T1 sequence (P33981 whole entry): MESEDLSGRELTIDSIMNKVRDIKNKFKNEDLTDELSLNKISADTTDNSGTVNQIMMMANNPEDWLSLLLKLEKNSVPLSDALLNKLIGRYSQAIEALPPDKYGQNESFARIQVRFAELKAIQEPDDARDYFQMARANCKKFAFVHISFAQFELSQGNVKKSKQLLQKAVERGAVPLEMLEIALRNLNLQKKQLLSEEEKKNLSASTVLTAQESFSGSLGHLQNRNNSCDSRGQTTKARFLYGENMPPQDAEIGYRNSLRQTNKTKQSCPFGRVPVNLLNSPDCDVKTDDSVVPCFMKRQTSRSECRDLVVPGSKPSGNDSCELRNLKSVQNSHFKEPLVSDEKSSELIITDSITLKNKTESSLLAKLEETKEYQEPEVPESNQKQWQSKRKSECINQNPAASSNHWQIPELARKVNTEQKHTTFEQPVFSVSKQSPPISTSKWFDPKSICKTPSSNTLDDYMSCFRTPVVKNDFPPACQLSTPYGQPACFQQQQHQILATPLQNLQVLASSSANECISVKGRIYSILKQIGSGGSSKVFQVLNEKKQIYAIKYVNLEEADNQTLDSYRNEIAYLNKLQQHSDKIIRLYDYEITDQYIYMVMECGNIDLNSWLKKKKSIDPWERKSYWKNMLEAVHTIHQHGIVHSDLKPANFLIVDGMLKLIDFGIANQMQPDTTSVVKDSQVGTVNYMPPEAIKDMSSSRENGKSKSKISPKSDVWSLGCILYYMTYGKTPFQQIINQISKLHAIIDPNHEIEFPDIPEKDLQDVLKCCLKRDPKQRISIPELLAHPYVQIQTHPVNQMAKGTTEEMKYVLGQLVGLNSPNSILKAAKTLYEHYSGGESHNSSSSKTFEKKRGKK

One assay has as its target T1, human kinase Mps-1 (Homo sapiens (Human), UniProt P33981).
Test: not given
Particulars: read-out: Mps-1 IC50; N-terminally GST-tagged human full length recombinant Mps-1; 10 μM ATP; 1 μM biotinylated peptide substrate; 60 min at 22° C.
As for `CNC(=O)c1ccc(-c2cnc3c(NCCC(F)(F)F)nc(C#CCO)cn23)cc1C` [Example 70, 4-{6-(3-Hydroxyprop-1-yn-1-yl)-8-[(3,3,3-trifluoropropyl)amino]imidazo[1,2-a]pyrazin-3-yl}-N,2-dimethylbenzamide], the 50% inhibitory concentration (IC50) is 0.069 µM.

Turning to `OCC#Cc1cn2c(-c3ccc(-c4cnc(C5CC5)[nH]4)cc3)cnc2c(NCCCC(F)(F)F)n1` [Example 51, 3-{3-[4-(2-Cyclopropyl-1H-imidazol-5-yl)phenyl]-8-[(4,4,4-trifluorobutyl)amino]imidazo[1,2-a]pyrazin-6-yl}prop-2-yn-1-ol], the half-inhibitory concentration (IC50) is 0.015 µM.

Consider `C#Cc1cn2c(-c3ccc(C(=O)NC4(OC)CC4)c(C)c3)cnc2c(NCCC(F)(F)F)n1` [Example 68, 4-{6-ethynyl-8-[(3,3,3-trifluoropropyl)amino]imidazo[1,2-a]pyrazin-3-yl}-N-(1-methoxycyclopropyl)-2-methylbenzamide], for which the IC50 amounted to 0.305 µM.

Regarding `C#Cc1cn2c(-c3ccc(C(=O)NCC)c(C)c3)cnc2c(NCCC(F)(F)F)n1` [Example 64, N-ethyl-4-{6-ethynyl-8-[(3,3,3-trifluoropropyl)amino]imidazo[1,2-a]pyrazin-3-yl}-2-methylbenzamide], the 50% inhibitory concentration (IC50) worked out at 0.12 µM.

`Cc1cc(-c2cnc3c(NCCC(F)(F)F)nc(C#CCN4CCS(=O)(=O)CC4)cn23)ccc1C(=O)NC1CC1` [Example 62, N-cyclopropyl-4-{6-[3-(1,1-dioxidothiomorpholin-4-yl)prop-1-yn-1-yl]-8-[(3,3,3-trifluoropropyl)amino]imidazo[1,2-a]pyrazin-3-yl}-2-methylbenzamide]: the IC50 was 0.0042 µM.

As to `CCNC(=O)c1ccc(-c2cnc3c(NCCC(F)(F)F)nc(C#CCO)cn23)cc1C` [Example 71, N-ethyl-4-{6-(3-hydroxyprop-1-yn-1-yl)-8-[(3,3,3-trifluoropropyl)amino]imidazo[1,2-a]pyrazin-3-yl}-2-methylbenzamide], the half-maximal inhibitory concentration (IC50) amounted to 0.15 µM.

Turning to `O=C(NC1CC1)c1ccc(-c2cnc3c(NCCCO)nc(C#CCO)cn23)cc1` [Example 1, N-cyclopropyl-4-{8-[(3-hydroxypropyl)amino]-6-(3-hydroxyprop-1-yn-1-yl)imidazo[1,2-a]pyrazin-3-yl}benzamide], the half-maximal inhibitory concentration (IC50) amounted to 0.031 µM.

`COC1(NC(=O)c2ccc(-c3cnc4c(NCCC(F)(F)F)nc(C#CCO)cn34)cc2C)CC1` [Example 75, 4-{6-(3-hydroxyprop-1-yn-1-yl)-8-[(3,3,3-trifluoropropyl)amino]imidazo[1,2-a]pyrazin-3-yl}-N-(1-methoxycyclopropyl)-2-methylbenzamide]: the IC50 turned out to be 0.31 µM.

`CC(C)CNc1nc(C#CCO)cn2c(-c3ccc(-c4cnc(C5CC5)[nH]4)cc3)cnc12` [Example 54, 3-{3-[4-(2-Cyclopropyl-1H-imidazol-5-yl)phenyl]-8-(isobutylamino)imidazo[1,2-a]pyrazin-6-yl}prop-2-yn-1-ol]: the concentration for half-maximal inhibition (IC50) was found to be 0.0084 µM.

For the compound `O=C(NC1CC1)c1ccc(-c2cnc3c(NCCCCO)nc(C#CC4(O)CCCC4)cn23)cc1` [Example 9, N-cyclopropyl-4-{8-[(4-hydroxybutyl)amino]-6-[(1-hydroxycyclopentyl)ethynyl]imidazo[1,2-a]pyrazin-3-yl}benzamide], the IC50 was 0.01 µM.

Turning to `C#Cc1cn2c(-c3ccc(C(=O)NC)c(C)c3)cnc2c(NCCC(F)(F)F)n1` [Example 63, 4-{6-Ethynyl-8-[(3,3,3-trifluoropropyl)amino]imidazo[1,2-a]pyrazin-3-yl}-N,2-dimethylbenzamide], the half-inhibitory concentration (IC50) was determined as 0.135 µM.

In the case of `Cc1cc(-c2cnc3c(NCCC(F)(F)F)nc(C#CCO)cn23)ccc1C(=O)NC1(C)CC1` [Example 73, 4-{6-(3-hydroxyprop-1-yn-1-yl)-8-[(3,3,3-trifluoropropyl)amino]imidazo[1,2-a]pyrazin-3-yl}-2-methyl-N-(1-methylcyclopropyl)benzamide], the IC50 was 0.12 µM.

`C#Cc1cn2c(-c3ccc(C(=O)NC4(C#N)CC4)c(C)c3)cnc2c(NCCC(F)(F)F)n1` [Example 67, N-(1-cyanocyclopropyl)-4-{6-ethynyl-8-[(3,3,3-trifluoropropyl)amino]imidazo[1,2-a]pyrazin-3-yl}-2-methylbenzamide]: the IC50 is 0.165 µM.

With `CC(C)CNc1nc(C#Cc2ccccc2F)cn2c(-c3ccc(S(=O)(=O)NC4CC4)cc3)cnc12` [Example 3, N-cyclopropyl-4-{6-[(2-fluorophenyl)ethynyl]-8-(isobutylamino)imidazo[1,2-a]pyrazin-3-yl}benzenesulfonamide], the IC50 came out at 20 µM.

As for `OCC#Cc1cn2c(-c3ccc(-c4cnc(C5CC5)[nH]4)cc3)cnc2c(NC[C@H](O)CO)n1` [Example 50, (2S)-3-({3-[4-(2-cyclopropyl-1H-imidazol-5-yl)phenyl]-6-(3-hydroxyprop-1-yn-1-yl)imidazo[1,2-a]pyrazin-8-yl}amino)propane-1,2-diol], the IC50 was 0.13 µM.

For the compound `OCC#Cc1cn2c(-c3ccc(-c4cnc(C5CC5)[nH]4)cc3)cnc2c(NCC2CCC2)n1` [Example 58, 3-{8-[(Cyclobutylmethyl)amino]-3-[4-(2-cyclopropyl-1H-imidazol-5-yl)phenyl]imidazo[1,2-a]pyrazin-6-yl}prop-2-yn-1-ol], the concentration for half-maximal inhibition (IC50) came out at 0.0053 µM.

Take `OCC#Cc1cn2c(-c3ccc(-c4cnc(C5CC5)[nH]4)cc3)cnc2c(NCCC(F)(F)F)n1` [Example 57, 3-{3-[4-(2-Cyclopropyl-1H-imidazol-5-yl)phenyl]-8-[(3,3,3-trifluoropropyl)amino]imidazo[1,2-a]pyrazin-6-yl}prop-2-yn-1-ol]: the IC50 worked out at 0.0071 µM.

As for `CC(C)(O)CNc1nc(C#CCO)cn2c(-c3ccc(C(=O)NC4CC4)cc3)cnc12` [Example 10, N-cyclopropyl-4-{8-[(2-hydroxy-2-methylpropyl)amino]-6-(3-hydroxyprop-1-yn-1-yl)imidazo[1,2-a]pyrazin-3-yl}benzamide], the IC50 came out at 0.038 µM.

Take `OCC#Cc1cn2c(-c3ccc(-c4cnc(C5CC5)[nH]4)cc3)cnc2c(NCCCO)n1` [Example 59, 3-{3-[4-(2-Cyclopropyl-1H-imidazol-5-yl)phenyl]-8-[(3-hydroxypropyl)amino]imidazo[1,2-a]pyrazin-6-yl}prop-2-yn-1-ol]: the IC50 worked out at 0.053 µM.

As for `CC(C)CNc1nc(C#CCO)cn2c(-c3cccc(-c4cnc(C5CC5)[nH]4)c3)cnc12` [Example 55, 3-{3-[3-(2-Cyclopropyl-1H-imidazol-5-yl)phenyl]-8-(isobutylamino)imidazo[1,2-a]pyrazin-6-yl}prop-2-yn-1-ol], the half-inhibitory concentration (IC50) was found to be 0.52 µM.

As to `C#Cc1cn2c(-c3ccc(C(=O)NC4(C)CC4)c(C)c3)cnc2c(NCCC(F)(F)F)n1` [Example 66, 4-{6-ethynyl-8-[(3,3,3-trifluoropropyl)amino]imidazo[1,2-a]pyrazin-3-yl}-2-methyl-N-(1-methylcyclopropyl)benzamide], the IC50 stood at 0.155 µM.

The target in the next assay is T1, human kinase Mps-1. Description: biochemical.
Conditions: not given
`Cc1cc(-c2cnc3c(NCCC(F)(F)F)nc(C#CCO)cn23)ccc1C(=O)NC1C[C@@H]1F` (stereo in doubt) [Example 76, N-[rel(1S,2S)-2-fluorocyclopropyl]-4-{6-(3-hydroxyprop-1-yn-1-yl)-8-[(3,3,3-trifluoropropyl)amino]imidazo[1,2-a]pyrazin-3-yl}-2-methylbenzamide] showed an IC50 of 0.043 µM.

In the case of `NCCCNc1nc(C#CCO)cn2c(-c3ccc(-c4cnc(C5CC5)[nH]4)cc3)cnc12` [Example 60, 3-{8-[(3-Aminopropyl)amino]-3-[4-(2-cyclopropyl-1H-imidazol-5-yl)phenyl]imidazo[1,2-a]pyrazin-6-yl}prop-2-yn-1-ol], it took 0.23 µM to reach half-maximal inhibition (IC50).
